Reference: patent US20250346600A1, “TRICYCLIC DERIVATIVES AND RELATED USES” (MOMA Therapeutics, Inc., priority 2023, published 2025)

Legend:
[1] = molecular target: Full length WRN protein (aa 2-1432) (Homo sapiens (Human), UniProt Q14191); assay: WRN ATPase ADP-Glo biochemical assay, Assay Format A (10 μM ATP); details: 0.25 nM WRN, 100 nM C6.18 ssDNA, 30 min preincubation, read-out: ATPase ADPGlo AC50 (uM)- Assay Format A
Source text: Full length Werner helicase construct (Uniprot: Q14191) with an N-terminal FLAG-AVI-TEV tag was expressed using the Sf9 cell/baculovirus expression system. The harvested cell pellet was resuspended and lysed in a glass homogenizer. After insoluble material was removed by centrifugation, the helicase protein was first purified with FLAG affinity resin and then further purified through a size-exclusion chromatography column. Peak fractions containing the purified protein were concentrated, split into aliquots and frozen in liquid nitrogen to be thawed before use. Biochemical Assay Description (ATPase activity)-Assay Format A WRN activity was measured using an ATPase assay. Full length WRN protein (aa 2-1432) (production described separately) was used for the biochemical activity assays. The 39-mer ssDNA “C6.18” [NT] was purchased from IDT and used as a substrate. Quantification of ATP hydrolysis was evaluated using the ADP-Glo assay kit (Promega, Madison, WI). An enzyme titration time-course was performed to determine the optimal assay conditions. […] To evaluate the inhibitory effects of the compounds, 11-point 3-fold serial dilutions were prepared in DMSO. 50 nL of each concentration in duplicate was preincubated for 30 minutes in a 384-well microplate (Greiner #784075) with 5 μL of 0.5 nM WRN in assay buffer. The reaction was initiated by adding 5 μL of 200 nM C6.18 DNA with 20 μM ATP and was allowed to proceed for 30 minutes at room temperature. The reaction was stopped with 10 μL ADP-Glo reagent for 1 hour to remove unreacted ATP. Lastly, 20 μL ATP detection reagent was added and incubated for 1 hour to generate the luminescence signal. Control wells included “high controls” with no inhibition (DMSO, no compound) and “low controls” with maximum inhibition (no WRN). Luminescence was recorded on a PHERAstar (BMG Labtech, Ortenberg, Germany). Data was fit using the “Smart Fit” method within the Genedata Screener Software (Basel, Switzerland) to obtain IC50 values using four-parameter fits. Reported IC50s are the geometric means of at least two independent trials.

HCT116 cells = assay: HCT116 (MSI) 7 day viability, CellTiter Glo; assay type: cell-based; details: Homo sapiens, HCT-116, 168 h, 7 days, read-out: HCT116 (MSI) Viability 7 Day Abs AC50
Method in brief: (§1)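 HCT116 seeded at 50 cells/well and HT29 at 500 cells/well onto compound plates (10-point 3-fold dilutions from 10 mM DMSO stock), incubated 7 days at 37 °C, 5% CO2.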

HT29 cells = assay: HT29 (MSS) 7 day viability, CellTiter Glo; assay type: cell-based; details: Homo sapiens, HT-29, 168 h, 7 days, read-out: HT29 (MSS) Viability 7 Day CTGAbs AC50
Method in brief: as §1

Sequence of Full length WRN protein (aa 2-1432) (Q14191 2-1432): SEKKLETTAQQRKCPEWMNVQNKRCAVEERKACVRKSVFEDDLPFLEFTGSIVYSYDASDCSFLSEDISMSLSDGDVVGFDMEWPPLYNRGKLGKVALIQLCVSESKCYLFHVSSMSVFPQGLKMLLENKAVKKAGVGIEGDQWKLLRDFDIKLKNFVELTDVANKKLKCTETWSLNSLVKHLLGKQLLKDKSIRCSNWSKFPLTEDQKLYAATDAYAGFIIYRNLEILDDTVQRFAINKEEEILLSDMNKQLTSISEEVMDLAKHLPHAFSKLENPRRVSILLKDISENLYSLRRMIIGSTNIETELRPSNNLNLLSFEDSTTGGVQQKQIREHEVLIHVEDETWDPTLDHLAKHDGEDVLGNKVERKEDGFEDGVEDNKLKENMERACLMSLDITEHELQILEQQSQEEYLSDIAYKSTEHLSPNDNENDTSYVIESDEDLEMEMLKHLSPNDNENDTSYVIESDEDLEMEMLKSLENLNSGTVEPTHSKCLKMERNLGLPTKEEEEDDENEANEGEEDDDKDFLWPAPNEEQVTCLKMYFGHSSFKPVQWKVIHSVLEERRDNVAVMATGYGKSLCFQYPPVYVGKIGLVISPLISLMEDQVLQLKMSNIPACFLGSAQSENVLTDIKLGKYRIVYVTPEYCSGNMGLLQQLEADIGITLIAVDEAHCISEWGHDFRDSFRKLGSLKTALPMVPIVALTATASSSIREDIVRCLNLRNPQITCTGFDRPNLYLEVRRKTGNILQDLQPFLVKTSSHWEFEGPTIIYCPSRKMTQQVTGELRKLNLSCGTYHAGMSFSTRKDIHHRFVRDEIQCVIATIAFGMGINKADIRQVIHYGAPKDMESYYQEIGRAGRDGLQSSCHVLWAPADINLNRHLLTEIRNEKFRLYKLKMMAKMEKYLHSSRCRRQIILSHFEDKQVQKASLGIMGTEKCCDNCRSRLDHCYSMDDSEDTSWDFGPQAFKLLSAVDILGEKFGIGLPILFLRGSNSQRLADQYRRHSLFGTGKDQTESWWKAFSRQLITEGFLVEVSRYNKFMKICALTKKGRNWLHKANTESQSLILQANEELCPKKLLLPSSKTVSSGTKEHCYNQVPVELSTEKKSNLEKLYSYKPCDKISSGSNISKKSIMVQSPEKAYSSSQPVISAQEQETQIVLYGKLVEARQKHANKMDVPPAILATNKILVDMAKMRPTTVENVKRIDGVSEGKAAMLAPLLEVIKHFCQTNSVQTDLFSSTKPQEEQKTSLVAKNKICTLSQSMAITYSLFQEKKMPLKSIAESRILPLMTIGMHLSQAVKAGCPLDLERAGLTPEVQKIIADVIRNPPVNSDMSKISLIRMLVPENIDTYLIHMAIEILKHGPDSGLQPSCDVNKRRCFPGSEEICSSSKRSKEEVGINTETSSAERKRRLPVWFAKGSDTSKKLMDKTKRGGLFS

Compound	AC50 [1] [µM]	AC50 (HCT116 cells) [nM]	AC50 (HT29 cells) [nM]
C=CC(=O)N1CCc2nn(-c3ccc(C4CC4)cc3)c3c2C(C1)N(C(=O)c1ccc(OCC(F)(F)F)nc1)CC3 (stereo not shown) [Compound 118, 1-(2-(4-cyclopropylphenyl)-5-(6-(2,2,2-trifluoroethoxy)nicotinoyl)-2,3,4,5,5a,6,8,9-octahydro-7H-1,2,5,7-tetraazabenzo[cd]azulen-7-yl)prop-2-en-1-one]	> 0.055	> 1000	> 3000
C=CC(=O)N1CCc2nn(-c3ccc(C4CC4)cc3)c3c2C(C1)N(C(=O)c1ccc(-n2cccn2)nc1)CC3 (stereo not shown) [Compound 98, 1-(5-(6-(1H-pyrazol-1-yl)nicotinoyl)-2-(4-cyclopropylphenyl)-2,3,4,5,5a,6,8,9-octahydro-7H-1,2,5,7-tetraazabenzo[cd]azulen-7-yl)prop-2-en-1-one]	0.015 to 0.055	250 to 500	> 3000
C=CC(=O)N1CCc2nn(-c3ccc(C(C)C)cc3)c3c2C(C1)N(C(=O)C1CC1)CC3 (stereo not shown) [Compound 170, 1-(5-(cyclopropanecarbonyl)-2-(4-isopropylphenyl)-2,3,4,5,5a,6,8,9-octahydro-7H-1,2,5,7-tetraazabenzo[cd]azulen-7-yl)prop-2-en-1-one]	> 0.055	> 1000	> 3000
C=CC(=O)N1CCn2nc(-c3ccc(C(C)C)cc3)c3c2C(C1)N(C(=O)c1ccc(Br)c(O)c1)CC3 (stereo not shown) [Compound 37, 1-(5-(4-bromo-3-hydroxybenzoyl)-2-(4-isopropylphenyl)-4,5,5a,6,8,9-hexahydro-1,5,7,9a-tetraazabenzo[cd]azulen-7(3H)-yl)prop-2-en-1-one]	0.015 to 0.055	> 1000	> 3000
C=CC(=O)N1CCc2nn(-c3ccc(C4CCC4)cc3O)c3c2C(C1)N(C(=O)c1ncc(C(F)(F)F)c2[nH]cnc12)CC3 (stereo not shown) [Compound 154, 1-(2-(4-cyclobutyl-2-hydroxyphenyl)-5-(7-(trifluoromethyl)-1H-imidazo[4,5-c]pyridine-4-carbonyl)-2,3,4,5,5a,6,8,9-octahydro-7H-1,2,5,7-tetraazabenzo[cd]azulen-7-yl)prop-2-en-1-one]	< 0.0015	1 to 100	> 3000
C=CC(=O)N1CCc2nn(-c3ccc(C4CC4)cc3)c3c2C(C1)N(C(=O)c1cc2n(n1)CCN(C)S2(=O)=O)CC3 (stereo not shown) [Compound 116, 1-(2-(4-cyclopropylphenyl)-5-(2-methyl-1,1-dioxido-3,4-dihydro-2H-pyrazolo[1,5-e][1,2,5]thiadiazine-7-carbonyl)-2,3,4,5,5a,6,8,9-octahydro-7H-1,2,5,7-tetraazabenzo[cd]azulen-7-yl)prop-2-en-1-one]	> 0.055	> 1000	> 3000
CC(C)c1ccc(-n2nc3c4c2CCN(C(=O)c2ccc(Br)c5[nH]cnc25)C4CN(C(=O)C2=CCC2)CC3)cc1 (stereo not shown) [Compound 16, (7-bromo-1H-benzo[d]imidazol-4-yl)(7-(cyclobut-1-ene-1-carbonyl)-2-(4-isopropylphenyl)-2,3,4,5a,6,7,8,9-octahydro-5H-1,2,5,7-tetraazabenzo[cd]azulen-5-yl)methanone]	> 0.055	> 1000	> 3000
C=CC(=O)N1CCN(C)c2nn(-c3ccc(C(C)C)cc3)c3c2C(C1)N(C(=O)c1ccc(Br)c2[nH]cnc12)CC3 (stereo not shown) [Compound 56, 1-(5-(7-bromo-1H-benzo[d]imidazole-4-carbonyl)-2-(4-isopropylphenyl)-10-methyl-2,4,5,5a,6,8,9,10-octahydro-1,2,5,7,10-pentaazacycloocta[cd]inden-7(3H)-yl)prop-2-en-1-one]	0.015 to 0.055	250 to 500	> 3000
C=CC(=O)N1CCc2nn(-c3ccc(C4CCC4)cc3O)c3c2C(C1)N(C(=O)c1cnc(C(F)(F)F)c2[nH]ncc12)CC3 (stereo not shown) [Compound 151, 1-(2-(4-cyclobutyl-2-hydroxyphenyl)-5-(7-(trifluoromethyl)-1H-pyrazolo[3,4-c]pyridine-4-carbonyl)-2,3,4,5,5a,6,8,9-octahydro-7H-1,2,5,7-tetraazabenzo[cd]azulen-7-yl)prop-2-en-1-one]	< 0.0015	1 to 100	> 3000
C=CC(=O)N1CCc2nn(-c3ccc(C4CC4)cc3)c3c2C(C1)N(C(=O)c1ccc(C(F)F)nc1)CC3 (stereo not shown) [Compound 126, 1-(2-(4-cyclopropylphenyl)-5-(6-(difluoromethyl)nicotinoyl)-2,3,4,5,5a,6,8,9-octahydro-7H-1,2,5,7-tetraazabenzo[cd]azulen-7-yl)prop-2-en-1-one]	0.005 to 0.015	250 to 500	> 3000
C=CC(=O)N1Cc2nn(-c3ccc(C(C)C)cc3C)c3c2C(C1)N(C(=O)c1ccc(Br)c(O)c1)CC3 (stereo not shown) [Compound 35, 1-(6-(4-bromo-3-hydroxybenzoyl)-1-(4-isopropyl-2-methylphenyl)-1,5,5a,6,7,8-hexahydropyrazolo[3,4,5-de][1,7]naphthyridin-4(3H)-yl)prop-2-en-1-one]	0.005 to 0.015	100 to 250	> 3000
C=CC(=O)N1CCc2nn(-c3ccc(C4CC4)cc3)c3c2C(C1)N(C(=O)c1ccc(C2(C#N)CC2)nc1)CC3 (stereo not shown) [Compound 119, 1-(5-(7-acryloyl-2-(4-cyclopropylphenyl)-3,4,5,5a,6,7,8,9-octahydro-2H-1,2,5,7-tetraazabenzo[cd]azulene-5-carbonyl)pyridin-2-yl)cyclopropane-1-carbonitrile]	0.015 to 0.055	> 1000	> 3000
C=CC(=O)N1CCc2nn(-c3ccc(C4CCC4)cc3O)c3c2C(C1)N(C(=O)c1cnc(Br)c2[nH]cnc12)CC3 (stereo not shown) [Compound 137, 1-(5-(4-bromo-3H-imidazo[4,5-c]pyridine-7-carbonyl)-2-(4-cyclobutyl-2-hydroxyphenyl)-2,3,4,5,5a,6,8,9-octahydro-7H-1,2,5,7-tetraazabenzo[cd]azulen-7-yl)prop-2-en-1-one]	< 0.0015	1 to 100	> 3000
C=CC(=O)N1CCc2nn(-c3ccc(C4CC4)cc3)c3c2C(C1)N(C(=O)c1ccc(C#N)nc1)CC3 (stereo not shown) [Compound 123, 5-(7-acryloyl-2-(4-cyclopropylphenyl)-3,4,5,5a,6,7,8,9-octahydro-2H-1,2,5,7-tetraazabenzo[cd]azulene-5-carbonyl)picolinonitrile]	0.015 to 0.055	250 to 500	> 3000
C=CC(=O)N1CCc2nn(-c3ccc(C4CC4)cc3)c3c2C(C1)N(C(=O)c1cnc([N+](=O)[O-])c(O)c1)CC3 (stereo not shown) [Compound 120, 1-(2-(4-cyclopropylphenyl)-5-(5-hydroxy-6-nitronicotinoyl)-2,3,4,5,5a,6,8,9-octahydro-7H-1,2,5,7-tetraazabenzo[cd]azulen-7-yl)prop-2-en-1-one]	0.0015 to 0.005	> 1000	> 3000
C=CC(=O)N1CCc2nn(-c3ccc(C4CC4)cc3)c3c2C(C1)N(C(=O)c1ccc(OC(C)C)nc1)CC3 (stereo not shown) [Compound 122, 1-(2-(4-cyclopropylphenyl)-5-(6-isopropoxynicotinoyl)-2,3,4,5,5a,6,8,9-octahydro-7H-1,2,5,7-tetraazabenzo[cd]azulen-7-yl)prop-2-en-1-one]	0.015 to 0.055	500 to 1000	> 3000
C=CC(=O)N1CCOc2nn(-c3ccc(C(C)C)cc3)c3c2C(C1)N(C(=O)c1ccc(Br)c(O)c1)CC3 (stereo not shown) [Compound 48, 1-(5-(4-bromo-3-hydroxybenzoyl)-2-(4-isopropylphenyl)-2,3,4,5,5a,6,8,9-octahydro-7H-10-oxa-1,2,5,7-tetraazacycloocta[cd]inden-7-yl)prop-2-en-1-one]	0.0015 to 0.005	100 to 250	> 3000
CN(C)CC=CC(=O)N1CCOc2nn(-c3ccc(C4CCC4)cc3)c3c2C(C1)N(C(=O)c1ccc(Br)c2[nH]cnc12)CC3 (stereo not shown) [Compound 51, 1-(5-(7-bromo-1H-benzo[d]imidazole-4-carbonyl)-2-(4-cyclobutylphenyl)-2,3,4,5,5a,6,8,9-octahydro-7H-10-oxa-1,2,5,7-tetraazacycloocta[cd]inden-7-yl)-4-(dimethylamino)but-2-en-1-one]	0.015 to 0.055	> 1000	> 3000
C=CC(=O)N1CCc2nn(-c3ccc(C4CC4)cc3)c3c2C(C1)N(C(=O)c1csc(S(N)(=O)=O)c1)CC3 (stereo not shown) [Compound 125, 4-(7-acryloyl-2-(4-cyclopropylphenyl)-3,4,5,5a,6,7,8,9-octahydro-2H-1,2,5,7-tetraazabenzo[cd]azulene-5-carbonyl)thiophene-2-sulfonamide]	> 0.055	–	–
